Measured values as given in ChEMBL document CHEMBL1201862, “PubChem BioAssay data set” (2004).
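Results reflect a 48-hour exposure of cells in 96-well plates to compound at five concentrations. At the GI50, growth is halved.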 Active and inactive are the calls of the source. Rule as the data show it: active = GI50 up to about 1.1 µM and inactive = higher. Starred links: 1 amine or outer side, 2 acyl side, 3 side chain; linkers in the order of their positions; H or OH if unused. Positions of bridges follow the written chain, without caps; N, C: chain ends. Non-standard residues stand in square brackets, D forms with d. Residues, ends and D or L forms follow the SMILES beside them. Chains are numbered I, II in the order given. Actinocin(1to9) = Cc1c2oc3c(C)ccc(C(=O)[*:2])c3nc-2c(C(=O)[*:1])c(N)c1=O; NMeV = CN[CH](C(=O)O)C(C)C; Sar = CNCC(=O)O

Tests used:
Test in all cases: NCI tumour cell line growth inhibition, 48 h
[1] = test system: 786-0
[2] = test system: A549
[3] = test system: BT-549
[4] = test system: EKVX
[5] = test system: HCT-15
[6] = test system: HOP-92
[7] = test system: HT-29
[8] = test system: KM12
[9] = test system: MDA-N
[10] = test system: MOLT-4
[11] = test system: Malme-3M
[12] = test system: NCI-H226
[13] = test system: NCI-H522
[14] = test system: OVCAR-4
[15] = test system: OVCAR-5
[16] = test system: OVCAR-8
[17] = test system: RXF 393
[18] = test system: SF-268
[19] = test system: SK-MEL-28
[20] = test system: UACC-257

SMILES	GI50 [1]	GI50 [2]	GI50 [3]	GI50 [4]	GI50 [5] [µM]	GI50 [6]	GI50 [7]	GI50 [8]	GI50 [9]	GI50 [10]	GI50 [11]	GI50 [12]	GI50 [13]	GI50 [14]	GI50 [15]	GI50 [16]	GI50 [17]	GI50 [18]	GI50 [19]	GI50 [20]
COc1c(C(CC(C)C)OC(C)=O)ccc2c1C(=O)OCc1cc(C)cc(O)c1O2 (stereo not given)	15.5 µM (inactive)	12.4 µM (inactive)	16.2 µM (inactive)	11.8 µM (inactive)	10.1	11.9 µM (inactive)	17.8 µM (inactive)	19.3 µM (inactive)	15.1 µM (inactive)	12.8 µM (inactive)	16.1 µM (inactive)	14.9 µM (inactive)	13.2 µM (inactive)	13.9 µM (inactive)	15.1 µM (inactive)	16.7 µM (inactive)	18.2 µM (inactive)	14.3 µM (inactive)	15.8 µM (inactive)	8.47 µM (inactive)
COC1=C(OC)C(=O)c2cc(C)c(=O)c(C)cc2C1=O	11.9 µM (inactive)	20.2 µM (inactive)	15.2 µM (inactive)	17.3 µM (inactive)	21.3	16.4 µM (inactive)	22.1 µM (inactive)	17.6 µM (inactive)	2.53 µM (inactive)	2.27 µM (inactive)	17.1 µM (inactive)	18.6 µM (inactive)	14.6 µM (inactive)	2.83 µM (inactive)	31.3 µM (inactive)	17.3 µM (inactive)	15.3 µM (inactive)	13.6 µM (inactive)	16.5 µM (inactive)	11.2 µM (inactive)
CN1CN(c2ccccc2)C2(CCN(C(=O)OC(C)(C)C)CC2)C1=O	> 100 µM (inactive)	> 100 µM (inactive)	> 100 µM (inactive)	> 100 µM (inactive)	> 100	32.4 µM (inactive)	> 100 µM (inactive)	> 100 µM (inactive)	> 100 µM (inactive)	> 100 µM (inactive)	> 100 µM (inactive)	> 100 µM (inactive)	> 100 µM (inactive)	> 100 µM (inactive)	> 100 µM (inactive)	> 100 µM (inactive)	63.2 µM (inactive)	> 100 µM (inactive)	> 100 µM (inactive)	> 100 µM (inactive)
NC(=S)Nc1ccc2c(c1)oc1ccccc12	> 100 µM (inactive)	> 100 µM (inactive)	> 100 µM (inactive)	10.4 µM (inactive)	55.1	> 100 µM (inactive)	> 100 µM (inactive)	> 100 µM (inactive)	> 100 µM (inactive)	7.1 µM (inactive)	8.11 µM (inactive)	39 µM (inactive)	7.57 µM (inactive)	> 100 µM (inactive)	> 100 µM (inactive)	> 100 µM (inactive)	> 100 µM (inactive)	> 100 µM (inactive)	> 100 µM (inactive)	> 100 µM (inactive)
CC(C)(C)/C(O)=C\c1nc2cc(C(F)(F)F)ccc2[nH]c1=O	> 100 µM (inactive)	> 100 µM (inactive)	> 100 µM (inactive)	> 100 µM (inactive)	> 100	> 100 µM (inactive)	47.5 µM (inactive)	> 100 µM (inactive)	> 100 µM (inactive)	> 10 µM (inactive)	> 100 µM (inactive)	> 100 µM (inactive)	> 100 µM (inactive)	> 100 µM (inactive)	> 100 µM (inactive)	> 100 µM (inactive)	> 100 µM (inactive)	> 100 µM (inactive)	> 100 µM (inactive)	> 100 µM (inactive)
CCC(C)C1NC(=O)C(NC(=O)c2c3nc4c(C(=O)NC5C(=O)NC(C(C)CC)C(=O)N6CCCC6C(=O)N(C)CC(=O)N(C)C(C(C)C)C(=O)OC5C)ccc(C)c4oc-3c(C)c(=O)c2N)C(C)OC(=O)C(C(C)C)N(C)C(=O)CN(C)C(=O)C2CCCN2C1=O (stereo not given) (I: TIP[Sar][NMeV] / II: TIP[Sar][NMeV]; ester I:1-I:C, II:1-II:C; linker I:N-II:N via Actinocin(1to9); configuration not given here)	0.000195 µM (active)	0.000753 µM (active)	0.0105 µM (active)	0.0145 µM (active)	0.0172	0.00255 µM (active)	< 0.0001 µM (active)	0.00107 µM (active)	< 0.01 µM (active)	< 0.0001 µM (active)	0.000156 µM (active)	0.000889 µM (active)	< 0.0001 µM (active)	0.00625 µM (active)	0.00459 µM (active)	0.000262 µM (active)	0.00394 µM (active)	0.00322 µM (active)	0.00011 µM (active)	< 0.0001 µM (active)
CCCCCCCCCC1CC(=O)NCC(=O)NC(C(C)C)C(=O)NC(CC(C)C)C(=O)NC(C)C(=O)NC(C(C)C)C(=O)O1 (stereo not given)	12.2 µM (inactive)	17.2 µM (inactive)	11.4 µM (inactive)	21.5 µM (inactive)	> 100	15.5 µM (inactive)	5.9 µM (inactive)	6.79 µM (inactive)	17.1 µM (inactive)	13.3 µM (inactive)	22.6 µM (inactive)	36.6 µM (inactive)	14 µM (inactive)	4.76 µM (inactive)	38.4 µM (inactive)	6.03 µM (inactive)	35.3 µM (inactive)	4.55 µM (inactive)	15.2 µM (inactive)	38.8 µM (inactive)
O=C(NC(=S)Nc1ccc2c(c1)Sc1ccccc1O2)c1ccccc1	20.3 µM (inactive)	45.5 µM (inactive)	29.6 µM (inactive)	36.1 µM (inactive)	14	24.2 µM (inactive)	35.4 µM (inactive)	29.5 µM (inactive)	3.94 µM (inactive)	27.8 µM (inactive)	23.1 µM (inactive)	53.7 µM (inactive)	31.8 µM (inactive)	19.8 µM (inactive)	77.3 µM (inactive)	34.4 µM (inactive)	20.4 µM (inactive)	41.4 µM (inactive)	22.2 µM (inactive)	33.2 µM (inactive)
